Where two headings read alike, the source gives them in different places. Values belong to the molecule of their own block, whether it stands above or below them.
Target: T1, cloned human dopamine D3 receptors (Homo sapiens, UniProt P35462)
T1 construct: expressed in transfected cells; membrane homogenate
Assay: [N-Methyl-3H]Spiroperidol binding to cloned human dopamine D3 receptors (Protocol 1)
Source text: [N-Methyl-^3H]Spiroperidol Binding to Cloned Human Dopamine D3 Receptors
This assay measures the in vitro activity of compounds on cloned human dopamine (D3) receptors and predicts the direct dopamine-blocking properties of putative neuropsychiatric agents at human dopamine D3 receptors.
The D3 gene was isolated from a human striatal cDNA library (Stratagene). The gene was sequenced and sub-cloned into the expression vector RC/RSV (Invitrogen). CHO (Chinese Hamster Ovary) cells were stably transfected with 10 μg of the D3/RSV plasmid using the DOTAP method from Boehringer Mannheim and 72 clones that were G418 resistant were isolated. Using mRNA and binding displacement data a single high expressing clone was identified. This clone was then grown in large batches for the purpose of developing a 96 well format assay.
• 1. One plate (10 cm) with approximately 2-3 million D3 cells per plate is incubated with 1 ml of Trypsin-EDTA at room temperature for ˜2 min or until cells have lifted off plates. Four ml of Ham's F12+10% Fetal Bovine Serum+1% Penicillin/Streptomycin+G418 (400 μg/ml) medium are added to resuspend cells and 1 ml of this is added to each large plate (15 cm) containing 19 ml of the-same medium as mentioned above. • 2. The 5 large plates are incubated at 37° C.+5% CO2 for ˜3 days or until the cells are confluent. • 3. After these plates are confluent, they are split into 10 large plates. Medium is aspirated off, 2 ml of Trypsin-EDTA are added to each plate and plates are incubated at RT for 2 min or until cells have lifted off the plate. Eight ml of the F12 medium (same medium as #1 above) are added to each plate (10 ml total) to resuspend the cells and 5 ml are transferred to the 2 new plates containing 15 ml of the F12 media. • 4. The 10 large plates are incubated at 37° C.+5% CO2 for ˜2 days or until the cells are confluent. • 5. The 10 large plates are split into 60 large plates (using Trypsin-EDTA as #3 except 4 ml of F12 medium are added to resuspend cells and 1 ml is aliquoted to 6 new plates containing 19 ml of F12 medium each). • 6. Plates are incubated at […]+5% CO2 for ˜3 days or until cell are confluent. • 7. The 60 large plates are then split into 60 roller bottles (100-150 million cells/bottle). Medium is aspirated off, 2 ml of Trypsin-EDTA are added to each plate and incubated at RT for ˜2 minutes or until cells have lifted off plates. Eight ml of F12 medium are added to each plate to resuspend cells and the entire 10 ml are added to 1 roller bottle containing 90 ml of the F12 medium. • 8. The 60 roller bottles are immediately placed on their sides and transferred to the roller bottle incubator. They are incubated at 37° C.+5% CO2 for ˜3-5 days. Cells are spun at 30-40% motor speed in the Forma incubator. • 9. Medium is poured off and cells are washed 2× in PBS. • 10. Cells are then scraped off in 20 ml of PBS and the bottles are rinsed again with 5 ml of PBS to remove any remaining cells. Cells are stored on ice before membrane preparation. • 11. The yield for 60 D3 roller bottles has varied from ˜260-500 mg. • Note: All tissue culture reagents are from Gibco-BRL. C. Membrane Preparation
The cells are harvested into 250 ml centrifuge tubes with 100 volumes of cold phosphate buffered saline (PBS) and spun down (1200×G for 10 min at 4° C.). The medium is removed and 100 ml PBS are added to each centrifuge tube, cells are resuspend and spun down again. The PBS is removed and the final pellet is homogenized in an appropriate volume of 10% DMSO with a polytron on ice at a medium setting.
1. 0.5M Tris Buffer, pH 7.7 • a) 44.4 g Tris HCl 26.5 g Tris Base q.s. to 1 Liter (0.5 M Tris buffer, pH 7.7 at 37° C.) • b) make a 1:10 dilution in distilled H2O (0.05 M. Tris buffer, pH 7.7) 2. Tris Buffer Containing Physiological Salts • a) Stock buffer • NaCl 7.014 g • KCl 0.372 g • CaCl2 0.222 g • MgCl2 0.204 g • q.s. To 100 ml with 0.5 M. Tris Buffer • b) Dilute 1:10 in distilled H2O […]

[1] = the 14th table, read-out: D3 Ki
[2] = the 23rd table, read-out: D3 Ki
[3] = the 22nd table, read-out: D3 Ki
[4] = the 17th table, read-out: D3 Ki
[5] = the 13th table, unit inferred, read-out: D3Ki
[6] = the 16th table, read-out: D3 Ki
[7] = the 21st table, read-out: D3 Ki
[8] = the 18th table, read-out: D3 Ki

T1 sequence (P35462 whole entry): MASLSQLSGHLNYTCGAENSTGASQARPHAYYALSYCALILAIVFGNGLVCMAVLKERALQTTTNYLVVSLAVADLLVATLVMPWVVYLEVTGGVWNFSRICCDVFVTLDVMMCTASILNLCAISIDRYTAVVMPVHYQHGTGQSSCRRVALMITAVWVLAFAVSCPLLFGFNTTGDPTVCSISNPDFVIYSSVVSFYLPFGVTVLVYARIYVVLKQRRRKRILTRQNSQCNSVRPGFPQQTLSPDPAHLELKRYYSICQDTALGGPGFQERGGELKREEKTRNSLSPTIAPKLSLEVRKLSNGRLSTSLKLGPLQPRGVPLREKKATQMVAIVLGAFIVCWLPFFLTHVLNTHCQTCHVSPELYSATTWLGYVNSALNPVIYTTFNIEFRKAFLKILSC

Ki [3]: 17.7 nM
Structure (SMILES): O=C(NCCCCN1CCN(c2noc3ccsc23)CC1)c1cc2ccccc2s1 [compound 829681]

Ki (read-out: D3K1): 63 nM
Structure (SMILES): O=C(NCCCCN1CCN(c2c(Cl)sc3cc(C(F)(F)F)ccc23)CC1)c1ccco1 [compound 815576]

Ki (read-out: D3K1): 2.7 nM | Ki [1]: 2.7 nM
Structure (SMILES): O=C(NCCCCCCN1CCN(c2csc3cc(C(F)(F)F)ccc23)CC1)c1cccc(F)c1 [compound 827730]

Ki [4]: 21.8 nM
Structure (SMILES): O=C(c1ccc(F)cc1)N(Cc1ccccc1)CC1CC1CN1CCCN(c2csc3cc(F)ccc23)CC1 (racemic) [compound 830393]

Ki [2]: 124 nM
Structure (SMILES): CC[C@H]1CC[C@H](NCC2(CCN3CCC(c4noc5ccsc45)CC3)CC2)CC1 [compound 832401]

Ki (read-out: D3K1): 72 nM
Structure (SMILES): O=C(NCC1CCC1CN1CCN(c2csc3cc(C(F)(F)F)ccc23)CC1)c1cc2ccccc2[nH]1 (centres unmarked) [compound 826290]

Ki (Table 2, read-out: D3K1): 6.73 nM | Ki [6]: 6.73 nM
Structure (SMILES): O=C(NCCCCN1CCCN(c2csc3cc(F)ccc23)CC1)c1ccc2nonc2c1 [compound 826699]

Ki (Table 2, read-out: D3K1): 12.6 nM | Ki [6]: 12.6 nM
Structure (SMILES): CCOc1cccc2cc(C(=O)NCCCCN3CCCN(c4csc5cc(F)ccc45)CC3)oc12 [compound 827133]

Ki (Table 2, read-out: D3K1): 97.2 nM
Structure (SMILES): O=C(NCC(CO)CCN1CCN(c2csc3cc(C(F)(F)F)ccc23)CC1)c1ccc2[nH]ccc2c1 (centres unmarked) [818931ES]

Ki (read-out: D3K1): 34.2 nM
Structure (SMILES): O=C(NCCCCN1CCN(c2c(Cl)sc3cc(C(F)(F)F)ccc23)CC1)c1ccc(Br)cc1 [compound 815571]

Ki [5]: 10.6 nM
Structure (SMILES): O=C(NCCCCN1CCCN(c2csc3cc(F)ccc23)CC1)c1cnc2ccccc2n1 [compound 822200]

Ki [5]: 26.9 nM
Structure (SMILES): O=C(NCCCCN1CCCN(c2csc3cc(F)ccc23)CC1)c1ccc(F)cc1 [S981846]

Ki (the 20th table, read-out: D3 Ki): 146 nM
Structure (SMILES): O=C(NCc1ccoc1CN1CCN(c2csc3cc(F)ccc23)CC1)c1cccc(C(F)(F)F)c1 [compound 825841]

Ki (Table 2, read-out: D3K1): 201 nM
Structure (SMILES): O=C(NCC(CO)CCN1CCN(c2csc3cc(C(F)(F)F)ccc23)CC1)c1ccc2ccccc2c1 (centres unmarked) [818929ES]

Ki (read-out: D3K1): 8.7 nM | Ki [1]: 8.7 nM
Structure (SMILES): O=C(NCCCCCCN1CCN(c2csc3cc(C(F)(F)F)ccc23)CC1)c1ccc(OC(F)(F)F)cc1 [compound 826749]

Ki [5]: 1.65 nM
Structure (SMILES): Cn1c(C(=O)NCCCCN2CCCN(c3csc4cc(F)ccc34)CC2)cc2ccccc21 [S977821]

Ki (read-out: D3K1): 16 nM
Structure (SMILES): O=C(NC/C=C/CN1CCN(c2csc3cc(C(F)(F)F)ccc23)CC1)c1cc2ccccc2s1 [compound 827728]

Ki [5]: 1.14 nM
Structure (SMILES): O=C(NCCCCN1CCCN(c2csc3cc(F)ccc23)CC1)c1ccc2[nH]ccc2c1 [S977824]

Ki [3]: 92.1 nM
Structure (SMILES): COc1ccccc1C(=O)NCCCCN1CCN(c2n[nH]c3ccsc23)CC1 [compound 825159]

Ki [5]: 9 nM
Structure (SMILES): Cc1nn(-c2ccccc2)nc1C(=O)NCCCCN1CCCN(c2csc3cc(F)ccc23)CC1 [S981833]

The remaining lines, values behind:

Structure (SMILES): O=C(NCCCCCN1CCN(c2csc3cc(F)ccc23)CC1)c1ccc2ccccc2c1 [compound 826779]
Ki [1]: 0.984 nM

Structure (SMILES): Clc1ccc(CN2CCN(CC3CC3CN3CCC(c4noc5ccsc45)CC3)CC2)cc1Cl (racemic) [832297GW]
Ki [2]: 393 nM

Structure (SMILES): O=C(Cc1ccccc1)NC[C@@H]1CC1CN1CCCN(c2csc3cc(F)ccc23)CC1 (some centres unmarked) [compound 831203]
Ki [4]: 3.21 nM

Structure (SMILES): O=C(N[C@@H](CO)CCCN1CCN(c2csc3cc(C(F)(F)F)ccc23)CC1)c1ccc(-c2ccccc2)cc1 [compound 815670]
Ki (read-out: D3K1): 192 nM | Ki [1]: 192 nM

Structure (SMILES): O=C(NC/C=C/CN1CCN(c2csc3cc(C(F)(F)F)ccc23)CC1)C1CCC1 [compound 827711]
Ki (read-out: D3K1): 230 nM

Structure (SMILES): O=C(NCCCCN1CCCN(c2csc3cc(F)ccc23)CC1)c1ccc2cc[nH]c2c1 [S977825]
Ki [5]: 0.882 nM

Structure (SMILES): COc1ccc(C(=O)NC/C=C/CN2CCN(c3csc4cc(C(F)(F)F)ccc34)CC2)cc1 [compound 827738]
Ki (Table 2, read-out: D3K1): 22.6 nM

Structure (SMILES): C[C@@H]1CN(c2csc3cc(F)ccc23)C[C@H](C)N1CCCCNC(=O)c1cccc2ccccc12 [compound 827050]
Ki [7]: 186 nM

Structure (SMILES): CCCCS(=O)(=O)NCC1CC1CN1CCN(c2csc3cc(C(F)(F)F)ccc23)CC1 (centres unmarked) [compound 831636]
Ki (the 24th table, read-out: D3 Ki): 186 nM

Structure (SMILES): O=C(NC/C=C\CN1CCN(c2csc3cc(C(F)(F)F)ccc23)CC1)c1cccnc1 [compound 826336]
Ki (read-out: D3K1): 41 nM

Structure (SMILES): CC[C@H]1CC[C@H](NC[C@@H]2C[C@H]2CN2CCN(c3ccc(C)cc3C)CC2)CC1 [compound 832266]
Ki [2]: 29.6 nM

Structure (SMILES): Cc1ccc2oc(C(=O)NCCCCN3CCCN(c4csc5cc(F)ccc45)CC3)cc2c1 [compound 827129]
Ki (Table 2, read-out: D3K1): 7.75 nM | Ki [6]: 7.75 nM

Structure (SMILES): O=C(NCCCCCN1CCN(c2csc3cc(F)ccc23)CC1)c1cccc2ccccc12 [compound 826778]
Ki [1]: 2.75 nM

Structure (SMILES): O=C1NCCN1CCNCC1CC1CN1CCN(c2csc3cc(C(F)(F)F)ccc23)CC1 (racemic) [compound 832609]
Ki [2]: 39.6 nM

Structure (SMILES): O=C(NCCCCN1CCN(c2c(Cl)sc3cc(C(F)(F)F)ccc23)CC1)c1ccc2c(c1)OCO2 [compound 815563]
Ki (read-out: D3K1): 21 nM

Structure (SMILES): O=C(N[C@H](CO)CCCN1CCN(c2csc3cc(C(F)(F)F)ccc23)CC1)c1cc2ccccc2s1 [compound 815708]
Ki (Table 2, read-out: D3K1): 180 nM | Ki (read-out: D3K1): 180 nM | Ki [1]: 180 nM

Structure (SMILES): O=C(NCc1sccc1CN1CCN(c2csc3cc(F)ccc23)CC1)c1cc2sccc2s1 [compound 826320]
Ki [8]: 75.3 nM

Structure (SMILES): COc1ccccc1C(=O)NCCCCCN1CCCN(c2csc3cc(F)ccc23)CC1 [S984492]
Ki [5]: 34.7 nM

Structure (SMILES): O=C(NCC1CC1CN1CCC(c2noc3ccsc23)CC1)Oc1ccccc1 (centres unmarked) [compound 831699]
Ki (D3 Ki (nM), the 25th table): 3.04 nM

Structure (SMILES): O=C(NC/C=C/CN1CCN(c2csc3cc(C(F)(F)F)ccc23)CC1)c1cccnc1 [compound 827714]
Ki (read-out: D3K1): 43 nM

Structure (SMILES): COc1ccccc1C(=O)NCCCCN1CCCN(c2csc3cc(C(F)(F)F)ccc23)CC1 [S980634]
Ki [5]: 14 nM

Structure (SMILES): OC(CCN1CCC(c2noc3ccsc23)CC1)CN1CCN(c2ccc(F)cc2)CC1 (centres unmarked) [compound 831939]
Ki (the 26th table, read-out: D3 Ki): 90 nM

Structure (SMILES): CCCCCCc1ccc(C(=O)NCCCCN2C3CCC2CC(c2noc4cc(F)ccc24)C3)cc1 (centres unmarked) [compound 816345]
Ki (the 15th table, read-out: D3 Ki): 95.6 nM

Structure (SMILES): O=C(NCCCCN1CCCN(c2csc3cc(C(F)(F)F)ccc23)CC1)c1ccc(C(F)(F)F)cc1 [S980644]
Ki [5]: 570 nM

Structure (SMILES): O=C(NCc1sccc1CN1CCN(c2csc3cc(F)ccc23)CC1)c1c[nH]c2ccccc12 [compound 826325]
Ki [8]: 54 nM

Structure (SMILES): C[C@@H]1CN(c2csc3cc(C(F)(F)F)ccc23)C[C@H](C)N1CCCCNC(=O)c1c[nH]c2ccccc12 [compound 826952]
Ki [7]: 164 nM

Structure (SMILES): O=C(N[C@H](CO)CCCN1CCN(c2csc3cc(C(F)(F)F)ccc23)CC1)c1cnccn1 [compound 815702]
Ki (Table 2, read-out: D3K1): 439 nM | Ki (read-out: D3K1): 439 nM | Ki [1]: 439 nM

Structure (SMILES): CCN(CC)c1ccc2cc(C(=O)NCCCCN3CCCN(c4csc5cc(F)ccc45)CC3)oc2c1 [compound 827123]
Ki (Table 2, read-out: D3K1): 107 nM | Ki [6]: 107 nM

Structure (SMILES): O=C(NCCCCCN1CCN(c2csc3cc(C(F)(F)F)ccc23)CC1)c1cccc2[nH]ccc12 [compound 826798]
Ki (read-out: D3K1): 6.44 nM | Ki [1]: 6.44 nM

Structure (SMILES): O=C(NCCCCN1CCCN(c2csc3cc(F)ccc23)CC1)c1ccc(C(F)(F)F)cc1 [S9818147]
Ki [5]: 30.8 nM
